Laboratory results as given in PubChem BioAssay AID1963961 (Molecular Pharmacology Branch, DTP, NCI, 2024).
Where “and” joins values, the source holds several entries; their conditions need not be identical. Identical values can stand only once.

Test system: K98450-129-R-PDC multicell spheroids, viability
Experiment: Anticancer human tumor K98450-129-R-PDC patient-derived colon adenocarcinoma cell line growth inhibition [PI3K]
Conditions: for viability, T/C: stronger effect = lower value
Procedure, shortened: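 Multi-cell spheroids combine tumor cells with HUVEC and human MSCs, treated with targeted agents alone or with inavolisib, alpelisib, duvelisib or copanlisib. Concentrations fall in half-log steps from at or near clinical Cmax, or from 10 microM where Cmax is unknown; viability read-out.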

[1] = curve of first compound, second compound 0.0316 µM
[2] = curve of first compound, second compound 0.1 µM
[3] = curve of first compound, second compound 0.316 µM
[4] = curve of first compound, second compound 1 µM
[5] = curve of first compound, second compound 3.16 µM
[6] = curve of first compound, second compound 10 µM
[7] = second compound 0.0316 µM, first compound 0.0316 µM
[8] = second compound 0.0316 µM, first compound 0.1 µM
[9] = second compound 0.0316 µM, first compound 0.316 µM
[10] = second compound 0.0316 µM, first compound 1 µM
[11] = second compound 0.0316 µM, first compound 3.16 µM
[12] = second compound 0.0316 µM, first compound 10 µM
[13] = second compound 0.1 µM, first compound 0.0316 µM
[14] = second compound 0.1 µM, first compound 0.1 µM
[15] = second compound 0.1 µM, first compound 0.316 µM
[16] = second compound 0.1 µM, first compound 1 µM
[17] = second compound 0.1 µM, first compound 3.16 µM
[18] = second compound 0.1 µM, first compound 10 µM
[19] = second compound 0.316 µM, first compound 0.0316 µM
[20] = second compound 0.316 µM, first compound 0.1 µM
[21] = second compound 0.316 µM, first compound 0.316 µM
[22] = second compound 0.316 µM, first compound 1 µM
[23] = second compound 0.316 µM, first compound 3.16 µM
[24] = second compound 0.316 µM, first compound 10 µM
[25] = second compound 1 µM, first compound 0.0316 µM
[26] = second compound 1 µM, first compound 0.1 µM
[27] = second compound 1 µM, first compound 0.316 µM
[28] = second compound 1 µM, first compound 1 µM
[29] = second compound 1 µM, first compound 3.16 µM
[30] = second compound 1 µM, first compound 10 µM
[31] = second compound 3.16 µM, first compound 0.0316 µM
[32] = second compound 3.16 µM, first compound 0.1 µM
[33] = second compound 3.16 µM, first compound 0.316 µM
[34] = second compound 3.16 µM, first compound 1 µM
[35] = second compound 3.16 µM, first compound 3.16 µM
[36] = second compound 3.16 µM, first compound 10 µM
[37] = second compound 10 µM, first compound 0.0316 µM
[38] = second compound 10 µM, first compound 0.1 µM
[39] = second compound 10 µM, first compound 0.316 µM
[40] = second compound 10 µM, first compound 1 µM
[41] = second compound 10 µM, first compound 3.16 µM
[42] = second compound 10 µM, first compound 10 µM
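Further: spheroids exposed to agents for seven days before read-out.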

## CCCS(=O)(=O)Nc1ccc(F)c(C(=O)c2c[nH]c3ncc(-c4ccc(Cl)cc4)cc23)c1F + Cc1nc(NC(=O)N2CCCC2C(N)=O)sc1-c1ccnc(C(C)(C)C(F)(F)F)c1
[1]
  IC50: 6.04 µM
[2]
  IC50: 6 µM
[3]
  IC50: 5.81 µM
[4]
  IC50: 5.69 µM
[5]
  IC50: 5.33 µM
[6]
  IC50: 4.79 µM
[7]
  viability, T/C: 106%
[8]
  viability, T/C: 98.7%
[9]
  viability, T/C: 101%
[10]
  viability, T/C: 101%
[11]
  viability, T/C: 124%
[12]
  viability, T/C: 6.29%
[13]
  viability, T/C: 108%
[14]
  viability, T/C: 96.9%
[15]
  viability, T/C: 105%
[16]
  viability, T/C: 103%
[17]
  viability, T/C: 118%
[18]
  viability, T/C: 5.28%
[19]
  viability, T/C: 95.8%
[20]
  viability, T/C: 95.8%
[21]
  viability, T/C: 94.1%
[22]
  viability, T/C: 92.8%
[23]
  viability, T/C: 120%
[24]
  viability, T/C: 5.66%
[25]
  viability, T/C: 89.2%
[26]
  viability, T/C: 90.9%
[27]
  viability, T/C: 94.3%
[28]
  viability, T/C: 92.9%
[29]
  viability, T/C: 107%
[30]
  viability, T/C: 6.99%
[31]
  viability, T/C: 84%
[32]
  viability, T/C: 85.8%
[33]
  viability, T/C: 84.5%
[34]
  viability, T/C: 89%
[35]
  viability, T/C: 88.8%
[36]
  viability, T/C: 6.1%
[37]
  viability, T/C: 70.5%
[38]
  viability, T/C: 72.8%
[39]
  viability, T/C: 78%
[40]
  viability, T/C: 71.1%
[41]
  viability, T/C: 76.9%
[42]
  viability, T/C: 7.67%

## Cn1nccc1Nc1nccc(-c2ccn(C(CO)c3ccc(Cl)c(F)c3)c(=O)c2)n1 (stereo unspecified)
Compound 0.0316 µM
  viability, T/C: 105% (2×) and 95% and 106%
Compound 0.1 µM
  viability, T/C: 101% (2×) and 104% and 81.8%
Compound 0.316 µM
  viability, T/C: 103% [middle of 4 runs]
Compound 1 µM
  viability, T/C: 101% [middle of 4 runs]
Compound 3.16 µM
  viability, T/C: 100% [middle of 4 runs]
Compound 10 µM
  viability, T/C: 94% [middle of 4 runs]
Curve of compound
  IC50: > 10 µM

## Cn1ncc(Cl)c1-c1cc(C(=O)NC(CN)Cc2cccc(F)c2)sc1Cl (stereo unspecified) + Cc1nc(NC(=O)N2CCCC2C(N)=O)sc1-c1ccnc(C(C)(C)C(F)(F)F)c1
[1]
  IC50: > 10 µM
[2]
  IC50: > 10 µM
[3]
  IC50: > 10 µM
[4]
  IC50: > 10 µM
[5]
  IC50: > 10 µM
[6]
  IC50: > 10 µM
[7]
  viability, T/C: 97.8%
[8]
  viability, T/C: 95%
[9]
  viability, T/C: 109%
[10]
  viability, T/C: 93.1%
[11]
  viability, T/C: 88.9%
[12]
  viability, T/C: 74.3%
[13]
  viability, T/C: 109%
[14]
  viability, T/C: 99.4%
[15]
  viability, T/C: 99.7%
[16]
  viability, T/C: 90.8%
[17]
  viability, T/C: 89.2%
[18]
  viability, T/C: 78.3%
[19]
  viability, T/C: 101%
[20]
  viability, T/C: 93.1%
[21]
  viability, T/C: 91.9%
[22]
  viability, T/C: 92.1%
[23]
  viability, T/C: 91.3%
[24]
  viability, T/C: 76.9%
[25]
  viability, T/C: 94%
[26]
  viability, T/C: 91%
[27]
  viability, T/C: 97.1%
[28]
  viability, T/C: 89.6%
[29]
  viability, T/C: 91.7%
[30]
  viability, T/C: 72.9%
[31]
  viability, T/C: 82.9%
[32]
  viability, T/C: 85.1%
[33]
  viability, T/C: 86.8%
[34]
  viability, T/C: 80.4%
[35]
  viability, T/C: 86.2%
[36]
  viability, T/C: 63.8%
[37]
  viability, T/C: 66.9%
[38]
  viability, T/C: 69.6%
[39]
  viability, T/C: 74.1%
[40]
  viability, T/C: 72.5%
[41]
  viability, T/C: 78.5%
[42]
  viability, T/C: 52.2%
